Patent US7122336B2, “Therapeutic and diagnostic methods for ulcerative colitis and associated disorders” (University of Medicine & Dentistry of New Jersey, priority 2000, dated 2006)
Entries after “also recorded” stand apart in the source; their conditions may differ.

What was measured:
[1] = system: secretion of hTM5 in LS-180 cells; test: Secretion of hTM5 by 35S-methionine-labeled LS-180 cells (chase with drugs, immunoprecipitation of culture medium, SDS-PAGE-fluorography, densitometry of 31 kDa band); format: cell-based, human; details: PMA 10 μM; for effect on the secretion of hTM5 (in words): 7E12H12 and LC-1 immunoprecipitations (FIGS. 7B and 7C); for effect on the secretion of hTM5 (in words) / stimulation of the secretion of hTM5 (31 kDa band, densitometry) compared to only DMSO treatment: A23187 2 μM, 2 h chase; for stimulation of the secretion of hTM5 (31 kDa band, densitometry) compared to only DMSO treatment: LS-180 culture medium; for effect of inhibitors of secretion on the secretion of hTM5 (in words): LC-1 immunoprecipitation (FIG. 7D), monensin 10 μM, methylamine 10 mM added during the chase
Protocol: (§1) A) Culture supernatant of LS-180 cells, labeled with […] (100 μCi/ml) for 16 h and chased for 2 h incubated with various drugs, was immunoprecipitated and analyzed by 3–12% SDS-PAGE-fluorography. For untreated cells, 10 μl/ml of DMSO was added during the chase. Immunoprecipitation was performed using 7E12H12 (lanes 1–4) or LC-1 (lanes 5–8) mAbs. Lanes 1 and 5 show the immunoprecipitation profile of the culture supernatant from untreated cells. Note the presence of a 31 kDa protein in lanes 1 and 5. The effect of secretagogues was examined by addition of 2 μM A23187 (lanes 2 and 7) or 10 μM PMA (lanes 3 and 6) during the chase. To examine the combined effect, A23187 (2 μM) and PMA (10 μM) were added together (lanes 4 and 8, respectively). B and C) For quantitative determination, a densitometric analysis of the 31 kDa band, coimmunoprecipitated with CEP (lanes 1–4) or hTM5 (lane 5–8) was performed with a 1 square millimeter window using a BioRad 670 densitometer after overnight exposure of the gel. Histograms B and C represent lanes 1–4 and 5–8 respectively. D) Effect of inhibitors of secretion on the secretion of hTM5. The inhibitors were added during the chase and the culture medium was immunoprecipitated with LC-1 mAb. Lane-1: PMA (10 μM), Lane-2: DMSO only, Lane-3: monensin (10 μM), and Lane-4: methylamine (10 mM) and analyzed by 3–12% gradient SDS-PAGE-fluorography.
To examine the possible association of hTM5 with the colon epithelium-specific protein (CEP), reactive with 7E12H12 monoclonal antibody, we adopted the protocols for radiolabeling, chase and drug treatment used in the study of regulated and unregulated secretion of glycoproteins from colon cancer cells (McCool DJ., et al., Biochem J. 1995; 312: 125–33; and Brion C., et al., J. Biol. Chem. 1992; 267: 1477–83). LS-180 cells were labeled with ^35S-methionine by treatment with methionine-free medium supplemented with 5% dialyzed fetal bovine serum and ^35S-methionine (100 μCi/ml) for 16 hours. Labeling was terminated by washing the cells two times with PBS followed by chase with regular DME for 2 hr. To examine the effects of stimulators and inhibitors of secretion, appropriate drugs were added during the chase period as described (McCool et al., supra; and Brion, et al., supra). Immunoprecipitations were performed on the culture medium as described in Kesari, K V and Geliebter, J. Immunol. Letts 1993: 38: 77–83. After the chase, the culture medium was collected, centrifuged to remove any insoluble material, and mixed with one tenth volume of 10× lysis buffer (500 mM Tris Cl, […], 5% NP40, and protease inhibitor cocktail, Complete, Boehringer-Mannheim, GMBH, Germany). To reduce nonspecific binding, the culture medium, where LS-180 cells were grown, was preabsorbed with protein G agarose (GIBCO-BRL, NY) for 16 h at 4° C. Immunoprecipitation was carried out on ice with purified monoclonal antibodies (5 μg/ml) or ascites (10 μl/ml) for 2 h and the immune complexes were collected on Protein G Agarose. To collect IgM immune complexes, protein G Agarose was pre-coated with affinity purified rabbit anti mouse IgM-μ chain-specific immunoglobulins (2 mg IgG/ml gel). The immune complexes were washed three times by centrifugation with ice cold washing buffer-1 (50 mM Tris Cl, pH 7.4, 150 mM NaCl, 5 mM EDTA, and 0.5% NP40), followed by one wash in buffer-2 (50 mM Tris Cl, pH 7.4, 500 mM MaCl, 5 mM EDTA, and 0.5% NP40), and once with buffer-3 (50 mM Tris Cl, pH 7.4).
To investigate whether the release of hTM5 from LS-180 cells is an active process, the effect of known stimulators (secretagogues), and inhibitors of secretion was examined in the present invention. Two secretagogues, the Ca ^2 ionophore A23187, and phorbol-12-myristate-13-acetate (PMA) have been used to explore the secretory pathways in LS-180 cells (McCool D J et al (1995) supra). […]

[2] = system: secretion of CEP in LS-180 cells; test: Secretion of CEP by 35S-methionine-labeled LS-180 cells (immunoprecipitation with 7E12H12); format: cell-based, human; details: 7E12H12 immunoprecipitation (FIG. 7A, lanes 1-4); A23187 2 μM, PMA 10 μM, or both
Protocol: as §1, with “gradient SDS-PAGE-fluorography. […]” for “gradient SDS-PAGE-fluorography.”

[3] = system: mucin secretion in LS-180 cells; details: McCool D J, et al. (1995); cited from earlier work
[4] = system: CEP; test: Cell surface expression of CEP; format: cell-based

Row | SMILES | effect on the secretion of hTM5 (in words) [1] | stimulation of the secretion of hTM5 (31 kDa band, densitometry) compared to only DMSO treatment ([1]; 7E12H12 immunoprecipitation (FIG. 7B)) [fold] | stimulation of the secretion of hTM5 (31 kDa band, densitometry) compared to only DMSO treatment ([1]; LC-1 immunoprecipitation (FIG. 7C)) [fold] | effect on secretion of CEP (in words) [2] | effect on mucin secretion in LS-180 cells [3] | effect of inhibitors of secretion on the secretion of hTM5 (in words) [1] | cell surface expression of CEP, sensitivity to drug [4]
1 | CNc1ccc2oc(C[C@H]3O[C@@]4(CC[C@H]3C)O[C@H]([C@H](C)C(=O)c3ccc[nH]3)[C@H](C)C[C@H]4C)nc2c1C(=O)O [A23187] | increased | 4.5 | 7.8 | unaffected | stimulate | – | –
2 | CCCCCCCCCCCCCC(=O)O[C@@H]1[C@@H](C)[C@@]2(O)[C@@H](C=C(CO)C[C@]3(O)C(=O)C(C)=C[C@@H]23)[C@@H]2C(C)(C)[C@]12OC(C)=O [PMA, phorbol-12-myristate-13-acetate] | almost totally inhibited | – | – | unaffected | stimulate | absence of hTM5 | –
3 | CC[C@@]1([C@@H]2O[C@@H]([C@H]3O[C@@](O)(CO)[C@H](C)C[C@@H]3C)C[C@@H]2C)CC[C@H]([C@]2(C)CC[C@]3(C[C@H](O)[C@@H](C)[C@@H]([C@@H](C)[C@@H](OC)[C@H](C)C(=O)O)O3)O2)O1 [monensin] | – | – | – | – | – | inhibited; also recorded: absence of hTM5 | sensitive
4 | CN [methylamine] | – | – | – | – | – | inhibited; also recorded: absence of hTM5 | –
